Source: ChEMBL document CHEMBL1201862, “PubChem BioAssay data set” (2004)
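Cells were grown in 96-well plates and exposed to each compound for 48 hours at five concentrations; endpoints were interpolated linearly between bracketing concentrations, or set to the highest concentration if not reached. GI50: concentration for 50% inhibition of growth.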 The source made the active and inactive calls. No stated cut-off is given here; in the data, active = GI50 up to about 1.1 µM and inactive = higher.

Experiments:
Assay in all cases: NCI anticancer screen, dose series, 48 h
[1] = tested on: OVCAR-8
[2] = tested on: KM12
[3] = tested on: HCC 2998
[4] = tested on: SK-OV-3
[5] = tested on: UACC-62
[6] = tested on: RXF 393
[7] = tested on: RPMI-8226
[8] = tested on: UO-31
[9] = tested on: CAKI-1
[10] = tested on: ACHN
[11] = tested on: LXFL 529
[12] = tested on: NCI-H522
[13] = tested on: IGROV-1
[14] = tested on: COLO 205
[15] = tested on: HL-60
[16] = tested on: A498
[17] = tested on: Malme-3M
[18] = tested on: EKVX
[19] = tested on: K562
[20] = tested on: KM-20L2
[21] = tested on: 786-0
[22] = tested on: SF-539
[23] = tested on: OVCAR-4
[24] = tested on: SK-MEL-2
[25] = tested on: SNB-75
[26] = tested on: HOP-18
[27] = tested on: SR
[28] = tested on: NCI-H460
[29] = tested on: SF-295
[30] = tested on: NCI-H23
[31] = tested on: SNB-19
[32] = tested on: NCI-H226
[33] = tested on: CCRF-CEM
[34] = tested on: OVCAR-3
[35] = tested on: UACC-257
[36] = tested on: SNB-78
[37] = tested on: SK-MEL-5
[38] = tested on: M19-MEL
[39] = tested on: TK-10
[40] = tested on: HCT-116
[41] = tested on: HCT-15
[42] = tested on: SF-268
[43] = tested on: HT-29
[44] = tested on: HOP-62
[45] = tested on: DMS-273
[46] = tested on: MOLT-4
[47] = tested on: OVCAR-5
[48] = tested on: M14
[49] = tested on: XF498
[50] = tested on: DMS-114
[51] = tested on: SN12C
[52] = tested on: HOP-92
[53] = tested on: A549
[54] = tested on: LOX IMVI
[55] = tested on: SK-MEL-28
[56] = tested on: U-251
[57] = tested on: SW-620
[58] = tested on: DLD-1

Measured: GI50

O=C1C(Cl)C(c2cc(Br)ccc2O)N1n1cnc2ccccc2c1=O (stereo not drawn)
inactive: [1] 12.1 µM | [2] 20.7 µM | [3] 17.4 µM | [4] 20 µM | [5] 11.5 µM | [6] 28.9 µM | [7] 5.4 µM | [8] 7.4 µM | [9] 21.3 µM | [10] 11.8 µM | [11] 17.1 µM | [12] 13.2 µM | [13] 17.5 µM | [14] 27.7 µM | [15] 1.72 µM | [16] 65.8 µM | [17] 20.5 µM | [18] 3.4 µM | [19] 5.27 µM | [20] 22.2 µM | [21] 17.3 µM | [22] 18.5 µM | [23] 10.7 µM | [24] 22.1 µM | [25] 15.2 µM | [26] 6.3 µM | [27] 2.74 µM | [28] 6.62 µM | [29] 16.8 µM | [30] 16.5 µM | [31] 14.5 µM | [32] 6.87 µM | [33] 3.28 µM | [34] 6.93 µM | [35] 10.5 µM | [36] 30.9 µM | [37] 16.8 µM | [38] 10.7 µM | [39] 31.8 µM | [40] 5.96 µM | [42] 2.53 µM | [43] 30.5 µM | [44] 13.7 µM | [45] 15.7 µM | [46] 2.75 µM | [47] 28.5 µM | [48] 11.3 µM | [49] 28.5 µM | [50] 5.46 µM | [51] 20 µM | [52] 15.7 µM | [53] 26.9 µM | [54] 6.64 µM | [55] 14.1 µM | [56] 10.7 µM | [57] 10 µM | [58] 15.6 µM
5.13 µM: [41]

O=S1(=O)C[C@@H](O)[C@H](O)CS1
inactive: [1] > 100 µM | [2] > 100 µM | [3] > 100 µM | [4] > 100 µM | [5] > 100 µM | [6] > 100 µM | [7] > 100 µM | [8] > 100 µM | [9] > 100 µM | [10] > 100 µM | [11] > 100 µM | [12] > 100 µM | [13] > 100 µM | [14] > 100 µM | [15] > 100 µM | [16] > 100 µM | [17] > 100 µM | [18] > 100 µM | [19] > 100 µM | [20] > 100 µM | [21] > 100 µM | [22] > 100 µM | [23] > 100 µM | [25] > 100 µM | [26] > 100 µM | [27] > 100 µM | [28] > 100 µM | [29] > 100 µM | [30] > 100 µM | [31] > 100 µM | [32] > 100 µM | [34] > 100 µM | [35] > 100 µM | [36] > 100 µM | [37] > 100 µM | [38] > 100 µM | [39] > 100 µM | [40] > 100 µM | [42] > 100 µM | [43] > 100 µM | [44] > 100 µM | [45] > 100 µM | [46] > 100 µM | [47] > 100 µM | [48] > 100 µM | [49] > 100 µM | [50] > 100 µM | [51] > 100 µM | [52] > 100 µM | [53] > 100 µM | [54] > 100 µM | [55] > 100 µM | [56] > 100 µM | [57] > 100 µM | [58] > 100 µM
